Source: BigSolDB 2.1

COc1ccc(C(=O)c2ccc(OC)cc2)cc1
solubility (mole fraction)
Settings	in benzene	in ethanol	in ethyl acetate	in isobutanol	in isopropanol	in methanol	in methyl acetate	in n-butanol	in n-propanol	in n-propyl acetate
293.15 K	0.0123	0.00091	0.00908	0.00101	0.00079	0.00067	0.00958	0.00114	0.00114	0.00947
298.15 K	0.0149	0.00109	0.0111	0.00137	0.001	0.00081	0.0115	0.00164	0.00141	0.0112
303.15 K	0.018	0.00141	0.0129	0.00168	0.0013	0.00104	0.0138	0.00214	0.00177	0.0126
308.15 K	0.0221	0.00188	0.0155	0.00237	0.00193	0.00134	0.0166	0.00306	0.00224	0.0151
313.15 K	0.0278	0.0024	0.0189	0.00313	0.00241	0.00181	0.0204	0.0036	0.00314	0.0187
318.15 K	0.0338	0.00302	0.023	0.00404	0.00308	0.00219	0.0248	0.00457	0.00403	0.0229
323.15 K	0.041	0.00402	0.0284	0.00539	0.00423	0.00286	0.0311	0.00612	0.00538	0.0277
328.15 K	0.0504	0.00516	0.0343	0.00718	0.00549	0.0037	0.0376	0.00824	0.00707	0.0329
333.15 K	0.063	0.00653	0.0408	0.00972	0.0075	0.00473	–	0.00996	0.00928	0.0406
